Laboratory results from US4855316A (priority 1988, dated 1989).

Tests used:
[1] = molecular target: T1, mu opioid receptor (Cavia porcellus, UniProt A0ACM8Q262); assay: mu opioid receptor binding: tritiated DAGO in guinea pig brain homogenates; settings: read-out: Opoid Binding Mu Ki; guinea pig brain homogenate, [3H]DAGO, 150 minutes, 0° C.
T1 construct: full-length wild-type receptor

[2] = standard rat paw pressure analgesia test; type: in vivo; settings: i.v.
From the text: The ED50 doses for several representative compounds of this invention in the standard rat paw pressure analgesia test are presented in Table 1.

T1 sequence (A0ACM8Q262 1-400): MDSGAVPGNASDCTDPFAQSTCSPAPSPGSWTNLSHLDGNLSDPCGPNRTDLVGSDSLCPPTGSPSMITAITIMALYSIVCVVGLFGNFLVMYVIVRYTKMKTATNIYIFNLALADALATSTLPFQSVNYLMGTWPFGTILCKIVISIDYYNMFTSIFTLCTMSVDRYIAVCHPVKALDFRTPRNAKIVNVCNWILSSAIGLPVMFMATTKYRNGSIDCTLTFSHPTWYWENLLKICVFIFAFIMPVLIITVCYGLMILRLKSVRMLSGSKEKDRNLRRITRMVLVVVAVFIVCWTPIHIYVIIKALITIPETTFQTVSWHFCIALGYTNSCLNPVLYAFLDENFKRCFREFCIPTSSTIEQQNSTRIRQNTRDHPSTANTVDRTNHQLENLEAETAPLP

SMILES	Ki [1] [nM]	Rat Paw Pressure MPE50 [2] [mg·kg]
CO[C@H]1C[C@@H](N2CCCC2)[C@H](N(C)C(=O)COc2cc(C)c(Cl)c(C)c2)C[C@H]1OC (relative stereo) [Compound 3]	720	> 10
CO[C@H]1C[C@@H](N2CCCC2)[C@H](N(C)C(=O)COc2ccc(Cl)c(Cl)c2)C[C@H]1OC (relative stereo) [Compound 4]	1100	> 10
CO[C@H]1C[C@@H](N2CCCC2)[C@H](N(C)C(=O)Cc2cccc3ccccc23)C[C@H]1OC (relative stereo) [Compound 5]	–	1.7
CO[C@H]1C[C@@H](N2CCCC2)[C@H](N(C)C(=O)Cc2ccc(Cl)c(Cl)c2)C[C@H]1OC (relative stereo) [Compound 6]	–	5.2
CO[C@H]1C[C@@H](N2CCCC2)[C@H](N(C)C(=O)CC2c3ccccc3-c3ccccc32)C[C@H]1OC (relative stereo) [Compound 7]	273	–
CO[C@H]1C[C@@H](N2CCCC2)[C@H](N(C)C(=O)COc2cc(C)c(Cl)c(C)c2Cl)C[C@H]1OC (relative stereo) [Compound 8]	700	–
CO[C@H]1C[C@@H](N2CCCC2)[C@H](N(C)C(=O)COc2cccc(F)c2)C[C@H]1OC (relative stereo) [Compound 9, N-[4,5-Dimethoxy-2-(1-pyrrolidinyl)cyclohexyl]-2-(3-fluorophenoxy)-N-methylacetamide]	1100	–
